Assay [1] deals with T1, Glycogen Branching Enzyme 1 (GBE1) wild type (Homo sapiens, UniProt Q04446).
T1 sequence (Q04446 1-702): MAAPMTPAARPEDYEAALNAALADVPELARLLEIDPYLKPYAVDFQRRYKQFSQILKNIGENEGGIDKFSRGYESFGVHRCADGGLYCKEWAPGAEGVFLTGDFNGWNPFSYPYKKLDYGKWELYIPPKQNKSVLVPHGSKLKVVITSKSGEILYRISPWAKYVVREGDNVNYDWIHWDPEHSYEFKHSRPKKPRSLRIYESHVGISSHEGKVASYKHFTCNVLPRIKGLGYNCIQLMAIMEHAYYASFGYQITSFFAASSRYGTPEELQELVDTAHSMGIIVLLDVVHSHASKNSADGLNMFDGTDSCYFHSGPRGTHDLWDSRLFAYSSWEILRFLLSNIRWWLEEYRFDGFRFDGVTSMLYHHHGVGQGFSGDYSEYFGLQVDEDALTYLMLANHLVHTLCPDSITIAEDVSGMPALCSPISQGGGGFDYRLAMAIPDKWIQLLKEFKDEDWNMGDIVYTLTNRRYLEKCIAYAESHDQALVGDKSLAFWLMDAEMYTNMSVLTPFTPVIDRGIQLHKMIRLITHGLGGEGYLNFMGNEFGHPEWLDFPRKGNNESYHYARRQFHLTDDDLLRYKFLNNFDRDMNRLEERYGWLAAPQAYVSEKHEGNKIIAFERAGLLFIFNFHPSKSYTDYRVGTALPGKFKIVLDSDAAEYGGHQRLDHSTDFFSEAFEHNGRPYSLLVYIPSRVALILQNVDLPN
Put plainly: activity of purified enzyme GBE1 in the presence of PC membranes. Format: biochemical. The conditions noted are these: PC membranes with TGM 20 mol %; non-mutated enzyme = 100% (0.76 nmol/min · ng protein). The text has this:
It has been possible to observe that the molecules of the present invention are capable of regulating the activity of the Glycogen Branching Enzyme 1 (GBE1) and its joining to membranes (Table 9). Alterations in this enzyme give rise to a neurodegenerative process known as APBD (Kakhlon et al., 2013). It has been described that a modification of tyrosine in position 329 of this enzyme (Y329S) causes a reduction in the activity of GBE1. This gives rise to a lower branching of glycogen, which precipitates forming […] which interfere with cell activity (Kakhlon et al., 2013). This gives rise to problems in the function of certain organs, to motor problems and, in some cases, to cognitive decline. We have been able to verify that the hydroxy-triglycerides of the present invention are capable of regulating the joining of native GBE1 (wild type, wt) and with the variant Y329S to membranes and to increase the activity of the form Y329S, which is very low in normal conditions (Table 9). For this reason, the molecules of the present invention are effective for the prevention and treatment of the polyglucosan bodies disease, APBD.

Assay [2] in a line: membrane transition temperatures by X-ray diffraction. Format: physicochemical. The conditions noted are these: POPE with 1 mol % of TGM. From the text:
As can be appreciated, the presence of TGM induce a very important reduction in the lateral surface tension which is evident from the reduction in the value of the lamellar-to-hexagonal (L-a-HII) transition temperature, which in turn indicates an increase in non-lamellar propensity: Table 12). This effect has an important repercussion on the functionality of the membrane, as this structure allows for the anchoring of certain membrane proteins necessary for cell signalling. For this reason, it can be said that the TGMs have a positive effect on cell signalling because they allow the propagation of cell signals which are lost in association with a wide variety of diseases. This effect shown on the structure of the membrane explains in part why certain oils, such as olive oil or fish oil, have important beneficial properties for the prevention of various diseases, such as cancer, cardiovascular/metabolic diseases and neurological/neurodegenerative diseases. FIG. 6 and Table 12 show clearly how all the TGMs have a similar effect, although with minor nuances in each case. The effect on the solid-liquid transition (Tm) and the lamellar to hexagonal transition (TH) was measured in membranes of palmitoyl-oleoyl phosphatidylethanolamine (POPE) by means of X-ray diffraction in the absence of (POPE Control) or presence of 1 mol % of each one of the indicated TGMs.

For assay [3], the system named is cholesterol in plasma. Kind of assay: plasma cholesterol in SHR rats. Format: in vivo. The conditions noted are these: p.o.; for Chol, levels of total cholesterol in plasma: 6 days, 400 mg/kg. The text has this:
(§1) Metabolic and cardiovascular pathologies are closely related. The overfeeding which characterises our society not only gives rise to problems of obesity and excess weight. It is also linked to the appearance of diabetes, dyslipidaemia, hypertension, strokes, arteriosclerosis, ictus, etc. All of these pathologies increase the risk of premature death and can even cause death. In this sense, certain natural oils show a certain efficacy against this type of pathologies, but their power is limited. In contrast, the molecules of the invention have an important effect against the development of this type of pathologies. To be able to study the effects of the compounds of the invention for the prevention and treatment of metabolic and cardiovascular pathologies, hypertensive rats were used (SHR strain, spontaneously hypertensive rats). These rats present obesity, high blood pressure, dyslipidaemia (hypercholesterolemia and hypertriglyceridemia), diabetes, metabolic syndrome and other related health problems. Also, SHR rats were used to research the efficacy of the hydroxy-triglycerides for the prevention and treatment of dyslipidaemias. On the one hand, treatments with different oral doses and durations gave rise to reductions in the plasma levels of total cholesterol and its fractions in test animals (Tables 5 and 6). These reductions were marked and significant, returning the cholesterol in plasma values to those found in animals without metabolic/cardiovascular disorders. […] [table] [table]

Assay [4] concerns triglycerides in plasma. Kind of assay: plasma triglycerides in SHR rats. Format: in vivo. The conditions noted are these: 6 days, 400 mg/kg, p.o.
Text: as §1, with “problems.” for “problems. Also, SHR rats were used to research the efficacy of the hydroxy-triglycerides for the prevention and treatment of dyslipidaemias. On the one hand, treatments with different oral doses and durations gave rise to reductions in the plasma levels of total cholesterol and its fractions in test animals (Tables 5 and 6). These reductions were marked and significant, returning the cholesterol in plasma values to those found in animals without metabolic/cardiovascular disorders.”, “[table]” for “[table] [table]”

On to `CCCCCC=CCC=CCC=CCCCC(O)C(=O)OCC(COC(=O)C(O)CCCC=CCC=CCC=CCCCCC)OC(=O)C(O)CCCC=CCC=CCC=CCCCCC` (centres unmarked) [TGM3G, 1,2,3-tri(2′-hydroxy-octadec-6′,9′,12′-trienoyl)glycerol], for which the “Activity GBE1wt” value in assay [1] came to 69 ± 7%. For the same molecule, in assay [2], the “TH, lamellar to hexagonal transition temperature” value (from here on “TH, lamellar”) is 63.6 ± 1.1 °C and the “Tm, solid-liquid transition temperature” value came to 23.3 ± 0.3 °C. In assay [3], the “Chol, levels of total cholesterol in plasma” value (“Chol, levels” for short) is 65.1 ± 4 mg/dL. Moreover, the “TG, levels of triglycerides in plasma” value in assay [4] was found to be 64.1 ± 5 mg/dL.

On to `CCCCCC=CCC=CCCCCCCC(O)C(=O)OCC(COC(=O)C(O)CCCCCCC=CCC=CCCCCC)OC(=O)C(O)CCCCCCC=CCC=CCCCCC` (centres unmarked) [TGM2, 1,2,3-tri(2′-hydroxy-octadec-9′,12′-dienoyl)glycerol], for which the “Activity GBE1wt” value in assay [1] came to 72 ± 5%. In addition, in assay [2], the “TH, lamellar” value was 62.0 ± 1.1 °C and the “Tm, solid-liquid transition temperature” value turned out to be 23.6 ± 0.3 °C. For the same molecule, in assay [3], the “Chol, levels” value was 51.7 ± 2 mg/dL. Further, the “TG, levels of triglycerides in plasma” value in assay [4] worked out at 61.7 ± 3 mg/dL.

`CCC=CCC=CCC=CCC=CCC=CCC=CCC(O)C(=O)OCC(COC(=O)C(O)CC=CCC=CCC=CCC=CCC=CCC=CCC)OC(=O)C(O)CC=CCC=CCC=CCC=CCC=CCC=CCC` (centres unmarked) [TGM6, 1,2,3-tri(2′-hydroxy-docosa-4′,7′,10′,13′,16′,19′-hexanoyl)glycerol]: in assay [1], the “Activity GBE1wt” value amounted to 33 ± 3%. Also, in assay [2], the “TH, lamellar” value is 64.9 ± 0.9 °C and the “Tm, solid-liquid transition temperature” value was found to be 23.3 ± 0.2 °C. In assay [3], the “Chol, levels” value is 48.9 ± 3 mg/dL. The “TG, levels of triglycerides in plasma” value in assay [4] was 49.4 ± 4 mg/dL.

Turning to `CCC=CCC=CCC=CCC=CCC=CCCC(O)C(=O)OCC(COC(=O)C(O)CCC=CCC=CCC=CCC=CCC=CCC)OC(=O)C(O)CCC=CCC=CCC=CCC=CCC=CCC` (centres unmarked) [TGM5, 1,2,3-tri(2′-hydroxy-eicosa-5′,8′,11′,14′,17′-pentaenoyl)glycerol], the “Activity GBE1wt” value in assay [1] was found to be 24 ± 2%. Also, the “Chol, levels” value in assay [3] came out at 58.4 ± 3 mg/dL. Moreover, the “TG, levels of triglycerides in plasma” value in assay [4] stood at 56.2 ± 3 mg/dL.

`CCCCCC(O)C(=O)OCC(COC(=O)C(O)CCCCC)OC(=O)C(O)CCCCC` (centres unmarked) [TGM0, 1,2,3-tri(2′-hydroxyheptanoyl)glycerol]: in assay [1], the “Activity GBE1wt” value is recorded as 95 ± 12%. For the same molecule, in assay [2], the “TH, lamellar” value was 68.3 ± 0.6 °C and the “Tm, solid-liquid transition temperature” value is 22.7 ± 0.2 °C. The “Chol, levels” value in assay [3] was 62.2 ± 3 mg/dL. Also, the “TG, levels of triglycerides in plasma” value in assay [4] is 69.7 ± 7 mg/dL.

In the case of `CCCCCCCCC=CCCCCCCC(O)C(=O)OCC(COC(=O)C(O)CCCCCCC=CCCCCCCCC)OC(=O)C(O)CCCCCCC=CCCCCCCCC` (centres unmarked) [TGM1, 1,2,3-tri(2′-hydroxy-octadec-9′-enoyl)glycerol], the “Activity GBE1wt” value in assay [1] came out at 89 ± 10%. Moreover, in assay [2], the “TH, lamellar” value stood at 66.0 ± 0.9 °C and the “Tm, solid-liquid transition temperature” value worked out at 23.8 ± 0.3 °C. The “Chol, levels” value in assay [3] came out at 55.5 ± 2 mg/dL. Moreover, in assay [3] (14 days, 600 mg/kg, 12 h), the HDL in plasma worked out at 33.44 ± 2.251 mmHgmg/dl, the LDL in plasma is given as 3.644 ± 0.3244 mmHgmg/dl and the “Total cholesterol in plasma” value is 49.11 ± 3.084 mmHgmg/dl. The “TG, levels of triglycerides in plasma” value in assay [4] was 51.6 ± 4 mg/dL.

Regarding `CCCCCC=CCC=CCC=CCC=CCCC(O)C(=O)OCC(COC(=O)C(O)CCC=CCC=CCC=CCC=CCCCCC)OC(=O)C(O)CCC=CCC=CCC=CCC=CCCCCC` (centres unmarked) [TGM4, 1,2,3-tri(2′-hydroxy-eicosa-5′,8′,11′,14′-tetraenoyl)glycerol], in assay [1], the “Activity GBE1wt” value was determined as 31 ± 4%. Also, in assay [2], the “TH, lamellar” value was 64.6 ± 0.8 °C and the “Tm, solid-liquid transition temperature” value was 23.2 ± 0.2 °C. For the same molecule, the “Chol, levels” value in assay [3] is 72.7 ± 2 mg/dL. In assay [4], the “TG, levels of triglycerides in plasma” value is 69.3 ± 3 mg/dL.

For the molecule `CCC=CCC=CCC=CCCCCCCC(O)C(=O)OCC(COC(=O)C(O)CCCCCCC=CCC=CCC=CCC)OC(=O)C(O)CCCCCCC=CCC=CCC=CCC` (centres unmarked) [TGM3A, 1,2,3-tri(2′-hydroxy-octadec-9′,12′,15′-trienoyl)glycerol], the “Activity GBE1wt” value in assay [1] is given as 88 ± 2%. In addition, in assay [2], the “TH, lamellar” value stood at 63.0 ± 1.1 °C and the “Tm, solid-liquid transition temperature” value came to 23.4 ± 0.2 °C. In addition, in assay [3], the “Chol, levels” value is 49.8 ± 2 mg/dL. For the same molecule, the “TG, levels of triglycerides in plasma” value in assay [4] is 54.8 ± 4 mg/dL.

(Values after US10047036B2, “Method for the synthesis of hydroxy-triglycerides and uses thereof for the prevention and treatment of diseases” (UNIVERSITAT DE LES ILLES BALEARS, priority 2014, dated 2018).)
